A word on the IC50: it is the point on the concentration scale where inhibition reaches its midpoint. A high value points to weaker potency.

The subject of one data set is THP-1 xenograft. As to the kind of experiment: THP-1 leukemia xenograft model. Format: in vivo, CB.17 SCID mice. The conditions noted are these: 120 mg/kg PO twice per day, 5 days per week, 4 weeks. On the procedure:
Six to seven weeks old male CB.17 SCID mice were purchased from BioLasco Taiwan Co., LTD. and quarantined for one week. During experiment period, 5 mice will be housed in one cage. All animals will be hosted in the Da-Hu animal facility in a 12-h light/12-h dark cycle at 19-25° C. Animals have free access to rodent pellet food and water ad libitum. The experimental protocol of animal study was reviewed and approved by the Institutional Animal Care and Use Committee, DCB. Compound 1 was diluted in olive oil to final concentrations of 12 mg/mL.
Tumor cell line: THP-1 cells (leukemia) were cultured in RPMI-1640 medium or DMEM medium which supplemented with 10% heat inactivated fetal bovine serum. The cells were cultured in tissue culture flasks in a humidified incubator at 37° C., in an atmosphere of 5% CO2 and 95% air.
The human cancer cells used for implantation were harvested during log phase growth and resuspended in phosphate buffered saline to a concentration containing 2×10^7 cells/mL of THP-1, in 0.1 mL of a 50% Matrigel solution (BD Biosciences, MA, USA). […] Volume was calculated using the formula: Tumor Volume=(w^2×l)/2 where w=width and l=length in diameter (mm) of the tumor. […]
Tumors were measured twice per week using calipers. […] The body weight change was calculated as the percentage increase in body weight compared to the initial body weight. […]

Another data set deals with Ras. As to the kind of experiment: Immunoblot of unprocessed and processed Ras in cancer cell lines. Format: cell-based, human. The conditions noted are these: H838 cells, 24 h. The protocol:
FIG. 2A-C show illustrative effective results of the exemplary Compound 1 inhibiting Ras processing in cancer cell lines. (2A) A549 and H838 cells were treated with different concentrations of Compound 1 and grown under serum (10% FBS) or serum-free (no FBS) conditions for 24 h. (2B) H838, (2C) HepG2 and K562 cells were treated with different concentrations of Compound 1 and grown under serum-free (no FBS) conditions for 24 h. Whole cell lysates were then immunoblotted with a Ras antibody. A duplicate membrane was probed with a GAPDH antibody. The relative expression level of unprocessed to processed Ras was quantified by densitometry. The experiments were conducted three times. […]
FIG. 3A-C show illustrative effective results of Compound 1 inhibiting the prenylation activity of farnesyltransferase in vitro and competes with FPP within cells. […] The relative expression level of unprocessed to processed Ras was quantified by densitometry. […]
Sixty micrograms of total protein lysates measured using a Bradford assay (Sigma-Aldrich, St. Louis, Mo., USA) were resolved on 12.5% SDS-polyacrylamide gels. […] Secondary antibodies were conjugated to horseradish peroxidase, which was detected using a 3,3′-diaminobenzidine substrate kit (Vector Laboratories, Burlingame, Calif.). The immunoreactive bands were quantified by densitometry using Image-Pro Plus software (Media Cybernetics, Silver Spring, Md.). […]
(Immunoblotting shows a protein as a band on a membrane.)

The subject of the next data set is H838. As to the kind of experiment: CCK-8 cell viability assay, H838. Format: cell-based. The conditions noted are these: Homo sapiens, NCI-H838, 48 h, 48 h treatment; means ± S.E.M. On the procedure: Human hepatoma (HepG2, Hep3B), human lung adenocarcinoma (A549, H838), and human myelogenous leukemia (K562) cell lines were obtained from American Type Culture Collection (Rockville, Md., USA). Human prostate cancer cell lines (LNCaP and DU145), human breast carcinoma (MCF-7), human bladder carcinoma (TSGH 8301) and human pancreas adenocarcinoma (BxPC-3) were obtained from BCRC (Bioresource Collection and Research Center, Hsinchu, Taiwan). HepG2, DU145 and MCF-7 cell lines were cultured in Minimum Essential Medium Alpha (Invitrogen/Gibco BRL, Grand Island, N.Y., USA). A549 cells were cultured in Dulbecco's modified Eagle's medium (Invitrogen/Gibco BRL). […]
Cell viability was measured using Cell Counting Kit-8 (CCK-8, Enzo Life Sciences, Farmingdale, N.Y.). […] The concentration of formazan was measured with a spectrophotometer at an absorbance wavelength of 450 nm. Cell viability was expressed as a percentage of the corresponding control.
To determine whether the cytotoxic effects of Compound 1 correlate with the presence of Ras mutations, cell lines derived from human lung cancer (A549 and H838), liver cancer (HepG2 and Hep3B), and leukemia (K562 and THP-1) with wild-type Ras (H838, Hep3B, and K562) or mutant Ras (A549, HepG2, and THP-1) were used. Cell viability was measured after 48 h of Compound 1 treatment.
(In general: Tetrazolium assays rely on reduction of a dye to a coloured formazan, in cell work by metabolically active cells.)

As for `COC1=C(OC)C(O)C(C/C=C(\C)CC/C=C(\C)CCC=C(C)C)C(C)C1=O` (stereo not shown) [Compound 1, 4-hydroxy-2,3-dimethoxy-6-methyl-5-(3,7,11-trimethyldodeca-2,6,10-trienyl)cyclohex-2-enone], the body weight result in the data set on THP-1 xenograft was “almost no body weight changes”.

Regarding `CC(C)=CCC/C(C)=C/CC/C(C)=C/COP(=O)(O)OP(=O)(O)O` [FPP], the “Ras processing, agent alone” value in the data set with Ras is listed as “potentiated Ras processing”. The “FPP concentration neutralizing the effect of Compound 1 on Ras processing” value in the data set with Ras (competition assay) is at least 10 µM. In the data set on H838, `COC1=C(OC)C(=O)C(C/C=C(\C)CC/C=C(\C)CCC=C(C)C)=C(C)C1=O` [Compound 25, 2,3-dimethoxy-5-methyl-6-((2E,6E)-3,7,11-trimethyldodeca-2,6,10-trienyl)cyclohexa-2,5-diene-1,4-dione] showed an IC50 of 22.6 ± 6.45 µM.

These data come from patent US9403747B2, “Methods and compositions for treating leukemia” (Golden Biotechnology Corporation, priority 2013, dated 2016).
